According to patent publication US4153684A, “Immunizing and anti-infectious adjuvant agents constituted by N-acetyl-muramyl-L-alanyl-D-glutamic acid derivatives” (priority 1976, dated 1979):
Several values for one entry are separate records, joined by “and”; a condition that tells them apart may be missing. Identical values can stand only once.

What was measured:
Klebsiella pneumoniae = test: Anti-infectious protection, intramuscular inoculation of 10^4 K.pneumoniae; format: in vivo, hybrid mice (C57B1/6×AKR)Fl; details: for Number of animals surviving on day 3 / Number of animals surviving on day 5 / Number of animals surviving on day 8: mouse, in vivo
[1] = tested on: retarded hypersensitivity to ovalbumin; test: Retarded hypersensitivity cutaneous test to ovalbumin (esters); format: in vivo, Hartley guinea-pigs; details: 100μg in FIA emulsion, challenge day 18, read 48 hours after
Method: The tests are effected on batches of 6 Hartley guinea-pigs, females, of 350 g. The administration is made by intradermal injection in the planter pad of each of the hind feet. […] The compound according to the invention is administered at the rate of 0.1 mg contained in the emulsion containing the FIA.
Eighteen days after this immunisation, one looks for possible reactions of retarded hypersensitivity in the antigen on injecting indradermally 0.01 mg or 5 μg of ovalbumin on the side of the animals, and 48 hours after, the reaction at the point of injection is observed. The diameter in mm of the reaction thus caused is measured.

anti-albumin antibody = test: Adjuvant character in aqueous phase: anti-albumin antibody by passive hemagglutination (esters); format: in vivo, Swiss mice
Method: In the series of tests of which the results are indicated hereafter, the influence of the active principle according to the invention on the proportion of the anti-albumin antibody has been studied under the following conditions.
Groups of 8 Swiss mice aged two months receive by subcutaneous injection (SC) or orally (PO) 0.5 mg of antigen constituted by the albumin of bovine serum (BSA) with or without the substance tested in an isotonic saline solution. This large dose of antigen, since it is situated at the limit of the paralysing dose with respect to the immunising response, on account of this fact has a weak response or no response to the antigen alone in the case of the controls; it therefore constitutes a severe criterion for showing the activity of an adjuvant substance. Thirty days later, the mice receive, by the same method of administration, a further dose containing 0.1 mg of the same antigen.
The proportion of antibody is determined by passive hemagglutination by using the red blood corpuscles of sheep treated with formalin and recovered from the antigen studied according to the method described by A. A. Hirata and M. W. Brandiss (J. Immunol., 100, 641-648, 1968). The taking of the blood occurred 14, 28, 34 and 36 days after the first injection.
By way of comparison, mice receive, instead of the product according to the invention, either lipopolysaccharides (LPS) (extract of S.Enteritidis by the water-phenol method), or the adjuvant denoted by the name "WSA" and described by Adam et al. [Infect. Immun. (1973) 7, 855-861]. The control mice only receive the antigen.
The proportions of antibody express the maximum serum dilution which agglutinates a given quantity of red blood corpuscles of sheep.

[2] = tested on: antibody specific to the ovalbumin; test: Adjuvant character in oily phase: serum antibody specific to ovalbumin (esters); format: in vivo, Hartley guinea-pigs; details: 100μg in FIA emulsion; for Serum antibody Precipitation: intradermal, 21 days; for Serum antibody Agglutination: passive hemagglutination
K. pneumoniae = tested on: K. pneumoniae; parameters: species or system mice; details: mouse, in vivo, iv
antibody to ovalbumin = test: Adjuvant character in oily phase: proportion of antibody to ovalbumin (NHCH3 series); format: in vivo, Hartley guinea-pigs; details: 500 μg ovalbumin, 100 μg in FIA emulsion, 21 days
Method: As for the preceding tests, one follows the increase of the proportion of antibody caused by the injection of antigen and of the compound of the invention, but, in the present case, the injection contains an oily phase constituted by Freund's incomplete adjuvant (in water-in-oil emulsion).
For these tests, Hartley guinea-pigs of 350 g were used. The control animals receive, in each of the hind feet 0.1 ml of emulsion, either of FIA, or of FCA (Freund's complete adjuvant) containing 500 μg of ovalbumin (antigen). The test product is administered at the rate of 100 μg, in an emulsion of FIA.
21 days after the injection, the proportion of antibody is determined by passive hemagglutatination (PHA), as previously, and by precipitation by the method of Folin.

anti-albumin antibodies [3] = test: Adjuvant character in aqueous solution: anti-albumin antibodies by passive hemagglutination (NHCH3 series); format: in vivo, Swiss mice
Method: Groups of 8 Swiss mice aged two months receive, by subcutaneous injection, 0.5 mg of antigen constituted by the albumin of bovine serum (BSA) and 0.1 mg of the substance tested in an isotonic saline solution. […] Thirty days later, the mice receive a further dose containing 0.1 mg of the same antigen.
The strength of antibody is determined by passive hemagglutination, by using the red blood corpuscles of sheep treated for formalin and recovered from the antigen studied by the method described by A. A. Hirata and M. W. Brandiss (J. Immunol., 100, 641-648, 1968). The taking of the blood took place 14, 28, 34 and 36 days after the first injection.

anti-albumin antibodies [4] = test: Adjuvant character in aqueous phase, 0.5 mg BSA (Ser series); format: in vivo, Swiss mice
Method: In the series of tests of which the results are indicated hereafter, the influence of the active principle according to the invention on the strength of the anti-albumin antibodies has been studied under the following conditions.
(§1) Groups of 8 Swiss mice aged two months receive, by subcutaneous injection, 0.5 mg of antigen constituted by the albumin of bovine serum (BSA) and 0.1 mg of the tested substance in an isotonic saline solution. This high dose of antigen, since it is situated at the limit of the paralysing dose with respect to the immunising response, therefore carries with it a weak response or no response to the antigen alone in the tests; it then constitutes a severe criterion for showing the activity of an adjuvant substance. Thirty days later, the mice receive a further dose containing 0.1 mg of the same antigen.
(§2) The strength of the antibody is determined by passive hemagglutination by using the red blood corpuscles of sheep treated with formalin and recovered from the antigen studied by the method described by A. A. Hirata and M. W. Brandiss (J. Immunol., 100, 641-648, 1968). The taking of the blood occurred 14, 28, 34 and 36 days after the first injection.
(§3) By way of comparison, the mice receive, instead of the Mur-NAc-L-Ser-D-iso-Gln, either lipopolysaccharides (LPS) (extract of S. Enteritidis by the water-phenol method), or the adjuvant denoted by the name "WSA" and described by Adam et al. [Infect. Immun. (1973) 7, 855-861]. The control mice only received the antigen.

mice = test: LD50 by intravenous injection on mice, Mur-NAc-L-Ser-D-iso-Gln; format: in vivo; details: mice aged two months
Method: By progressively increasing the doses administered, that for which the mortality of the mice of a single batch is established at 50% (LD50) is determined.

anti-albumin antibodies [5] = test: Adjuvant character in aqueous phase, first antigen dose 0.05 mg BSA, PA and ABC (Ser series); format: in vivo, Swiss mice; details: 100 μg, first BSA dose 0.05 mg
Method: as §1, §2, §3
These tests were carried out again with limitation of the dose of antigen in the first injection to 0.05 mg, the other conditions being the same. This weaker dose of antigen gives by itself a positive response with the controls which have received the antigen without adjuvant. It thus allows to be shown a substance which inhibits the response of immunising the disorder. Moreover, an adjuvant substance, under these conditions, always increases the strength of antibody with respect to that of the controls.
In these tests, the determination of the strength of antibody has been effected simultaneously by passive hemagglutination (PA) and by the method of fixation of the antigen by the serum (ABC), such as described by P. Minden and S. Parr (Handbook of Exp. Immunol., P. 463, D. M. Weir ed. Blackwell Scient. Pub. Oxford and Edinburgh, 1967).

[6] = I.V. 100 μg, 24 hours before the infection
[7] = 100μg S.C. with BSA 0.5 mg in isotonic saline, maximum serum dilution agglutinating
[8] = 100μg S.C. with BSA 0.5 mg, further 0.1 mg BSA at 30 days
[9] = I.V. 100 μg, 1 hour after the infection
[10] = iv, listed as Mur-NAc-L-Ala-D-Glu-(OCH3)2
[11] = per os 2000 μg, 24 hours before the infection
[12] = 100μg S.C. with BSA 0.5 mg in isotonic saline

COC(=O)CC[C@@H](NC(=O)[C@H](C)NC(=O)[C@@H](C)OC1C(O)C(CO)OC(O)C1NC(C)=O)C(N)=O (stereo partly drawn) [Mur-NAc-L-Ala-D-iso-Gln(OCH3), 2-(2-acetamido-2-deoxy-3-O-D-glucopyranose)-D-propionyl-L-alanyl-D-isoglutamine methyl ester]
% of protection (Klebsiella pneumoniae; [6]): 29% | Number of animals surviving on day 3 (Klebsiella pneumoniae; iv): 21 | Number of animals surviving on day 5 (Klebsiella pneumoniae; iv): 3 | Number of animals surviving on day 8 (Klebsiella pneumoniae; iv): 11 | Cutaneous test (diameter in mm) ([1]; ovalbumin 0.5 mg): 12 mm | Proportion of antibody 28th day (anti-albumin antibody; 100μg S.C. with BSA 0.5 mg): 12 | Proportion of antibody 14th day (anti-albumin antibody; [7]): 12 | Proportion of antibody 34th day (anti-albumin antibody; [8]): 100 | Proportion of antibody 36th day (anti-albumin antibody; [8]): 800 | Serum antibody Precipitation ([2]; ovalbumin 0.5 mg): 2100 µg/mL | Serum antibody Agglutination ([2]; ovalbumin 0.5 mg): 3000

COC(=O)CC[C@@H](NC(=O)[C@H](C)NC(=O)[C@@H](C)OC1C(O)C(CO)OC(O)C1NC(C)=O)C(=O)OC (stereo partly drawn) [Mur-NAc-L-Ala-D-Glu(OCH3)2, 2-(2-acetamido-2-deoxy-3-O-D-glucopyranose)-D-propionyl-L-alanyl-D-glutamic dimethyl ester]
% of protection (Klebsiella pneumoniae; [9]): 88% | % of protection (Klebsiella pneumoniae; [6]): 46% | Number of animals surviving on day 3 (Klebsiella pneumoniae): 10 | Number of animals surviving on day 5 (Klebsiella pneumoniae): 9 | Number of animals surviving on day 8 (Klebsiella pneumoniae): 8 | Number of animals surviving on day 3 (Klebsiella pneumoniae; iv): 8 | Number of animals surviving on day 5 (Klebsiella pneumoniae; iv): 8 | Number of animals surviving on day 8 (Klebsiella pneumoniae; iv): 8 | Number of animals surviving on day 3 (Klebsiella pneumoniae; [10]): 21 | Number of animals surviving on day 5 (Klebsiella pneumoniae; [10]): 19 | Number of animals surviving on day 8 (Klebsiella pneumoniae; [10]): 15 | % of protection (Klebsiella pneumoniae; [11]): 50% | Cutaneous test (diameter in mm) ([1]; ovalbumin 0.5 mg): 6.2 mm | Proportion of antibody 28th day (anti-albumin antibody; 100μg S.C. with BSA 0.5 mg): 50 | Proportion of antibody 14th day (anti-albumin antibody; [7]): 50 | Proportion of antibody 34th day (anti-albumin antibody; [8]): 400 | Proportion of antibody 36th day (anti-albumin antibody; [8]): 800 | Serum antibody Precipitation ([2]; ovalbumin 0.5 mg): 950 µg/mL | Serum antibody Agglutination ([2]; ovalbumin 0.5 mg): 2600 | % of protection (K. pneumoniae): 52.5% | Number of animals surviving on day 3 (K. pneumoniae): 15 | Number of animals surviving on day 5 (K. pneumoniae): 12 | Number of animals surviving on day 8 (K. pneumoniae): 10

CNC(=O)C(CCC(=O)O)NC(=O)C(C)NC(=O)C(C)OC1C(O)C(CO)OC(O)C1NC(C)=O [Mur-NAc-L-Ala-D-Glu(NHCH3), 2-(2-acetamido-2-deoxy-3-O-D-glucopyranosyl)-D-propionyl-L-alanyl-D-(α-methylamide)-glutamic acid]
Proportion of antibody Agglutination (antibody to ovalbumin; PHA): 6100 | Proportion of antibody Precipitation (antibody to ovalbumin; method of Folin): 5500 | strength of antibody 14th day (anti-albumin antibodies [3]; [12]): 6 | strength of antibody 34th day (anti-albumin antibodies [3]; [8]): 1600 | strength of antibody day (fourth column, 36 days) (anti-albumin antibodies [3]; [8]): 1600

COC(=O)[C@@H](CCC(=O)O)NC(=O)[C@H](C)NC(=O)[C@@H](C)OC1C(O)C(CO)OC(O)C1NC(C)=O (stereo partly drawn) [Mur-NAc-L-Ala-D-Glu-α-OCH3, 2-(2-acetamido-2-deoxy-3-O-D-glucopyranose)-D-propionyl-L-alanyl-D-glutamic α-methyl ester]
% of protection (Klebsiella pneumoniae; [9]): 88% | % of protection (Klebsiella pneumoniae; [6]): 67% | Number of animals surviving on day 3 (Klebsiella pneumoniae): 11 | Number of animals surviving on day 5 (Klebsiella pneumoniae): 9 | Number of animals surviving on day 8 (Klebsiella pneumoniae): 6 | Number of animals surviving on day 3 (Klebsiella pneumoniae; iv): 24 and 16 | Number of animals surviving on day 5 (Klebsiella pneumoniae; iv): 24 and 16 | Number of animals surviving on day 8 (Klebsiella pneumoniae; iv): 23 and 14 | % of protection (Klebsiella pneumoniae; [11]): 40.5% | Cutaneous test (diameter in mm) ([1]; ovalbumin 1 mg): 6 ± 3 mm | Proportion of antibody 14th day (anti-albumin antibody; 10μg S.C. with BSA 0.5 mg): 6 | Proportion of antibody 28th day (anti-albumin antibody; 10μg S.C. with BSA 0.5 mg): 6 | Proportion of antibody 34th day (anti-albumin antibody; 10μg S.C. with BSA 0.5 mg): 200 | Proportion of antibody 36th day (anti-albumin antibody; 10μg S.C. with BSA 0.5 mg): 400 | Proportion of antibody 28th day (anti-albumin antibody; 100μg S.C. with BSA 0.5 mg): 12 | Proportion of antibody 14th day (anti-albumin antibody; [7]): 12 | Proportion of antibody 34th day (anti-albumin antibody; [8]): 200 | Proportion of antibody 36th day (anti-albumin antibody; [8]): 400 | Proportion of antibody 14th day (anti-albumin antibody; 2000μg P.O. with BSA 0.5 mg): 6 | Proportion of antibody 28th day (anti-albumin antibody; 2000μg P.O. with BSA 0.5 mg): 6 | Proportion of antibody 34th day (anti-albumin antibody; 2000μg P.O. with BSA 0.5 mg): 50 | Proportion of antibody 36th day (anti-albumin antibody; 2000μg P.O. with BSA 0.5 mg): 200 | Serum antibody Precipitation ([2]; ovalbumin 1 mg, nitrogen precipitable per ml serum): 2600 µg/mL | % of protection (K. pneumoniae): 65% | Number of animals surviving on day 3 (K. pneumoniae): 16 | Number of animals surviving on day 5 (K. pneumoniae): 16 | Number of animals surviving on day 8 (K. pneumoniae): 12

CC(=O)NC1C(O)OC(CO)C(O)C1OC(C)C(=O)NC(CO)C(=O)NC(CCC(=O)O)C(N)=O [Mur-NAc-L-Ser-D-iso-Gln, 2-(2-acetamido-2-deoxy-3-O-D-glucopyranosyl)-D-propionyl-L-seryl-D-isoglutamine]
Strength of antibody 28th day (anti-albumin antibodies [4]; 100μg S.C. with BSA 0.5 mg): 25 | strength of antibody 14th day (anti-albumin antibodies [4]; [12]): 12 | Strength of antibody 36th day (anti-albumin antibodies [4]; [8]): 1600 | strength of antibody 34th day (anti-albumin antibodies [4]; [8]): 1600 | LD50 (mice): > 1 g per kg | Strength of antibody 28th day ABC (anti-albumin antibodies [5]): < 20 | Strength of antibody 28th day PA (anti-albumin antibodies [5]): 3 | Strength of antibody 34th day ABC (anti-albumin antibodies [5]): < 20 | Strength of antibody 34th day PA (anti-albumin antibodies [5]): 50 | Strength of antibody 42nd day PA (anti-albumin antibodies [5]): 260 | Strength of antibody 36 day ABC (anti-albumin antibodies [5]): 230 | Strength of antibody 36 day PA (anti-albumin antibodies [5]): 800 | Strength of antibody 14th day ABC (anti-albumin antibodies [5]; fixation of the antigen by the serum): < 20 | Strength of antibody 14th day PA (anti-albumin antibodies [5]; passive hemagglutination): < 3
